Reference: patent publication US11304431B2, “Sweetener and flavor compositions, methods of making and methods of use thereof” (EPC Natural Products Co., Ltd., priority 2018, dated 2022)
Residues, ends and D or L forms follow the SMILES beside them.

Tests used:
[1] = sweetness depends on the tested concentration compared with sucrose; cited from earlier work
[2] = HPLC/DAD/MS of Maillard reaction intermediates (MRI, Amadori products), unreacted partners and degradation kinetics at various pH; conditions: 120 °C; for % formation from degraded Phe: n.d. = not detected
Experimental: For HPLC analysis the reacted samples were injected after filtration (2 μm syringe filters).
Mobile Phase A consisted of a 0.1% formic acid in water. Mobile Phase B consisted of 0.1% formic acid in acetonitrile. […] Injection volume was set to 20 μl.
The mobile phase consisted of (A) 0.1% HCOOH (v/v) and (B) AcCN. A gradient of 5% (B) to 15% (B) was applied between 0 min to 15 min. Between 15 and 20 min (B) was increased to 45% which was kept for 5 min. Detection consisted of UV/VIS-DAD (205 nm, 254 nm, 450 nm) coupled to ESI-MS (pos mode, 300° C., TIC from m/z 120-1200, fragmentor 100).
Quantitative evaluation was performed using external standardization.

[3] = DPPH radical-scavenging activity (Example 65); conditions: Reb-A 10 mM with or without amino acid, 100° C., 0-5 hours, diluted 1:10; FIG. 49 and 50
Experimental: 1 mg 1,1-Diphenyl-2-picrylhydrazyl radical (DPPH)/ml ethanol, dilution to assay concentration were prepared in ethanol (40 μg/mL); Calibration samples were prepared with Ascorbic acid in a concentration of 0-10 μg/mL; as a negative control sample, water was used.
Samples in aqueous solution were used as such or diluted with water.
A 0.1 ml sample (or calibration standard) was mixed with 3.9 ml solution of DPPH (100 μMolar) and reacted while protected from light at room temperature for 30 min. Absorbance was determined at 517 nm against ethanol.
10 mM of amino acid and/or 10 mM sugar were dissolved in 10 ml 0.1 mM KH2PO4-buffer, pH=7.8.
The samples were kept at 100° C. in sealed glass vials (Pyrex 15 ml with screw caps) for 0 (before reaction), 2.5 or 5.0 hours. Thereafter the samples were transferred to an ice water bath and cooled down to room temperature. These samples were diluted 1:10 and used for the test assay for anti-oxidant potential.

[4] = reaction of Phe and Suc, pH = 5.5, 1.0 h

SMILES: COC(=O)[C@H](Cc1ccccc1)NC(=O)[C@@H](N)CC(=O)O [Aspartame] (H-Asp-Phe-OMe)
- times sweeter than sucrose (sugar, cane sugar) [1]: 160-200 times

SMILES: O=C(O)[C@H](Cc1ccccc1)NCC(=O)[C@@H](O)[C@H](O)[C@H](O)CO [MRI (Phe-Glu)]
- % formation from degraded Phe [2, 4]: <0.10%
- % formation from degraded Phe ([2]; reaction of Phe and Suc, pH = 7.0, 1.0 h): 0.54%
- % formation from degraded Phe ([2]; reaction of Phe and Suc, pH = 8.5, 1.0 h): 0.84%

SMILES: OC[C@@H](O)[C@@H](O)[C@H](O)[C@H](O)CO [Mannitol]
- times sweeter than sucrose (sugar, cane sugar) [1]: 0.55-0.65 times

SMILES: N[C@H](Cc1ccccc1)C(=O)O [Phe]
- % degradation [2, 4]: 5.50%
- % degradation ([2]; reaction of Phe and Xyl, pH = 7.0, 1.0 h): 4.80%

SMILES: C=C1C[C@@]23CC[C@H]4[C@@](C)(CCC[C@@]4(C)C(=O)O[C@@H]4O[C@H](CO)[C@@H](O)[C@H](O)[C@H]4O)[C@@H]2CC[C@]1(O[C@@H]1O[C@H](CO)[C@@H](O)[C@H](O[C@@H]2O[C@H](CO)[C@@H](O)[C@H](O)[C@H]2O)[C@H]1O[C@@H]1O[C@H](CO)[C@@H](O)[C@H](O)[C@H]1O)C3 [Reb-A, Rebaudioside A]
- anti-oxidant properties [3]: substantial anti-oxidant properties

SMILES: C=C1C[C@@]23CC[C@H]4[C@@](C)(CCC[C@@]4(C)C(=O)O[C@@H]4O[C@H](CO)[C@@H](O)[C@H](O)[C@H]4O)[C@@H]2CC[C@]1(O[C@@H]1O[C@H](CO)[C@@H](O)[C@H](O)[C@H]1O)C3 [Rubusoside]
- times sweeter than sucrose (sugar, cane sugar) [1]: 200 times

SMILES: C[C@H](CC[C@@H](O[C@@H]1O[C@H](CO)[C@@H](O)[C@H](O)[C@H]1O[C@@H]1O[C@H](CO)[C@@H](O)[C@H](O)[C@H]1O)C(C)(C)O)[C@H]1CC[C@@]2(C)[C@H]3CC=C4[C@@H](CC[C@H](O[C@@H]5O[C@H](CO[C@@H]6O[C@H](CO)[C@@H](O)[C@H](O)[C@H]6O)[C@@H](O)[C@H](O)[C@H]5O)C4(C)C)[C@]3(C)[C@H](O)C[C@]12C [mogroside IV]
- times sweeter than sucrose (sugar, cane sugar) [1]: 126 times

SMILES: C[C@H](CC[C@@H](O[C@@H]1O[C@H](CO[C@@H]2O[C@H](CO)[C@@H](O)[C@H](O)[C@H]2O)[C@@H](O)[C@H](O)[C@H]1O[C@@H]1O[C@H](CO)[C@@H](O)[C@H](O)[C@H]1O)C(C)(C)O)[C@H]1CC[C@@]2(C)[C@@H]3CC=C4[C@@H](CC[C@H](O[C@@H]5O[C@H](CO[C@@H]6O[C@H](CO)[C@@H](O)[C@H](O)[C@H]6O)[C@@H](O)[C@H](O)[C@H]5O)C4(C)C)[C@]3(C)[C@H](O)C[C@]12C [mogroside V]
- times sweeter than sucrose (sugar, cane sugar) [1]: 256-344 times

SMILES: O=S(=O)([O-])NC1CCCCC1.[Na+] [sodium cyclamate]
- times sweeter than sucrose (sugar, cane sugar) [1]: about 30 times

SMILES: OC[C@H]1O[C@H](O[C@]2(CCl)O[C@H](CCl)[C@@H](O)[C@@H]2O)[C@H](O)[C@@H](O)[C@H]1Cl [sucralose]
- times sweeter than sucrose (sugar, cane sugar) [1]: about 600 times
